According to the METLIN SMRT retention time set (Domingo-Almenara et al. 2019):

Assay: gradient 5% acetonitrile 3 min, to 50% in 2 min, to 85% in 15 min, held 3 min, 100 µL/min
Conditions: column: Zorbax Extend-C18 2.1 x 50 mm; eluents: water / acetonitrile, 0.1% formic acid
Procedure, shortened: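 Pure standards were analyzed in mixtures of ~100 molecules using HPLC coupled to a quadrupole time-of-flight mass spectrometer, in both positive and negative ionization mode. Separation used a Zorbax Extend-C18 column (2.1 × 50 mm, 1.8 μm) at 100 μL/min, with water and acetonitrile each containing 0.1% formic acid. Dead and dwell volumes were 40 μL and 900 μL, and data were collected over 3 months. Retention time was read from computationally picked adduct peaks, each inspected manually.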

Row | Structure (SMILES) | RP-LC retention time [s]
1 | C=CCNC(=O)C1COc2ccccc2O1 (centres undefined) | 630
2 | CCOC(=O)CCCn1c(=O)c2cccn2c2ccc(F)cc21 | 847
3 | CCCn1cc(CCNS(=O)(=O)c2ccc3c(c2)CCCC3)c2cccnc21 | 1030
4 | CCN1C(=O)COc2cc(-c3noc(C(=O)N4CCN(c5ccccc5)CC4)n3)ccc21 | 1030
5 | Cc1ccccc1CNC1=NCCNC12CCN(S(=O)(=O)c1ccc3c(c1)CCCC3)CC2 | 851
6 | CC1CCN(c2cc(-n3cnc(C(=O)Nc4ccc5c(c4)OCCO5)c3)ncn2)CC1 | 1030
7 | CCCn1c(=O)sc2cc(S(=O)(=O)N3CCC(C(=O)N(C)C4CCCCC4)CC3)ccc21 | 1020
8 | CN1C(=O)c2cccn2CC1CNS(=O)(=O)c1cccc2nsnc12 (centres undefined) | 680
9 | COc1ccc(CCc2nc(Cn3c(C)nc4ccccc4c3=O)no2)cc1 | 858
10 | CCn1cc(CCNC(=O)Nc2ccc3c(c2)OCO3)c2cccnc21 | 672
11 | O=C(Cc1c(Sc2ccccc2)[nH]c2ccccc12)N1CCN(c2ccccn2)CC1 | 679
12 | CCC(=O)N1CCc2ccccc2C1C(=O)NCc1ccc(SC)cc1 (centres undefined) | 853
13 | Cc1csc(NC(=O)c2cc(Sc3nncn3C)ccc2N)n1 | 700
14 | COc1ccc(Nc2c(-c3ccc(N(C)C)cc3)nc3cnccn23)cc1 | 740
15 | CCC(=O)N1CCCn2nc(-c3cccnc3)cc2C1 | 562
16 | Cc1nc(C(=O)NCc2cccc(Cl)c2)c(C)o1 | 871
17 | Cc1noc(C)c1S(=O)(=O)N1CCC2(CC1)CC(OCc1ccccc1)CCO2 (centres undefined) | 1070
18 | O=C(Cc1ccc(F)cc1)N1CCCC1c1nc(-c2ccc(F)cc2)no1 (centres undefined) | 1010
19 | CCn1cnc(S(=O)(=O)N2CCCC(C(=O)Nc3cccc(C)c3C)C2)c1 (centres undefined) | 754
20 | COCCN(Cc1cccs1)C(=O)c1nnn(-c2ccccc2)c1-c1ccccn1 | 824
21 | Cc1cc(C)c(S(=O)(=O)N(Cc2ccsc2)Cc2ccccn2)c(C)c1 | 1030
22 | Cc1c2cnn(CC(=O)NCC3CCCO3)c(=O)c2c(C)n1Cc1ccccc1F (centres undefined) | 747
23 | Cc1cc(N2CCCC2)n2nc(-c3ccc(Cl)cc3)c(C)c2n1 | 799
24 | CCCCCC#CC[C@@H](O)/C=C/C=C/C=C\[C@@H](O)CCCC(=O)O | 991
25 | CCNC(=O)C1CCCN(c2nc3ncn(CC(=O)Nc4cc(F)ccc4F)c(=O)c3s2)C1 (centres undefined) | 685
26 | O=C(Nc1ccc2nncn2c1)Nc1ccccc1Cl | 718
27 | CCc1nc(NCc2ccc(OC)c(OC)c2)ncc1C(=O)O | 682

Row | Structure (SMILES) | RP-LC retention time [s]
28 | CCn1ccc(C(=O)N2CCN(c3nc(CN4CCC(C)CC4)cs3)CC2)n1 | 613
29 | COCC1CN(C)CC12CCN(S(=O)(=O)c1ccc(F)c(C)c1)CC2 (centres undefined) | 659
30 | COc1cccc(-c2noc(Cn3ccn(-c4ccccc4OC)c(=O)c3=O)n2)c1 | 810
31 | Cc1csc(-c2cc(S(=O)(=O)NCCN3CCCCC3C)cn2CC(=O)N2CCCCC2)n1 (centres undefined) | 673
32 | Cc1ccc(Nc2c(C(=O)N3CCOCC3)cnc3nc(C)ccc23)cc1 | 598
33 | O=C(Cn1cnc2c(-c3ccc(F)cc3)csc2c1=O)NC1CCCC1 | 854
34 | COc1ccc(CN2CCC([C@@H]3CNC[C@H]3CO)CC2)c(Cl)c1OC | 551
35 | Cc1nnc(-c2c(S(=O)(=O)N3CCC(Cc4ccccc4)CC3)c(C)n(C)c2C)o1 | 931
36 | O=S(=O)(c1ccc(Cl)cc1)N1CCN(c2cnn3c(C4CC4)nnc3c2)CC1 | 749
37 | CN(C)S(=O)(=O)N1CC(c2noc(-c3cccnc3)n2)C2(CCOCC2)C1 (centres undefined) | 713
38 | CCOC(=O)CC1(NC(=O)N2CCN(c3nc4ccccc4n3CC)CC2)CCCCC1 | 703
39 | CCOc1ccc(NC(=O)N2CCC3(C2)C(=O)Nc2ccc(OC)cc23)cc1 (centres undefined) | 731
40 | CCC(=O)n1nc(C)c(S(=O)(=O)N2CCC(C)CC2)c1C | 1150
41 | NS(=O)(=O)c1ccc(NC2(C(=O)O)CCCC2)cc1 | 1010
42 | Cc1ccc(Cl)cc1NC(=O)Cn1ncc2c(c1=O)N(CC1CC1)C(=O)CS2 | 860
43 | Cn1ncc2c3ccccc3n(CC(=O)NCc3cccs3)c2c1=O | 764
44 | Cc1ccc(NC(=O)N2CC(N(Cc3ccncc3)CC(C)C)C2)cc1F | 705
45 | CC(=O)c1cccc(NC(=O)Cn2c(=O)nc(NC3CCCC3)c3ccccc32)c1 | 682
46 | Cc1cc(C)c(S(=O)(=O)Nc2ccc(-c3cn4ccccc4n3)cc2)cc1C | 719
47 | Cc1c(C(=O)N2CCC(C(=O)N3CC=C(c4ccccc4)CC3)CC2)sc2nc[nH]c(=O)c12 | 728
48 | CCNC(=O)N1CC(n2cc(C(=O)N(C)CCCc3c(C)nn(C)c3C)nn2)C1 | 569
49 | Cc1noc2nc(CCC(=O)NCCCN3CCc4ccccc4C3)nc(N3CCOCC3)c12 | 605
50 | Cc1ccn2cc(C(=O)NCCc3ccc(S(N)(=O)=O)cc3)nc2c1 | 551
51 | Cc1cccc(-n2c(=O)c3c(cc(C)n3C)n(CC(=O)Nc3ccc(C)c(Cl)c3)c2=O)c1 | 960
52 | O=C(Cn1c(=O)c2cc(C3CC3)nn2c2ncccc21)Nc1ccc(F)c(F)c1 | 792
53 | O=C1CC[C@@]2(O)C3Cc4ccc(O)c5c4C2(CCN3CC2CC2)[C@H]1O5 (some centres undefined) | 599
54 | CC1CCN(c2cnn(CC(=O)Nc3cccc(Cl)c3F)c(=O)c2Cl)CC1 | 1020

Continued, values first:

Row | RP-LC retention time [s] | Structure (SMILES)
55 | 858 | Cc1ccc(NC(=O)N2C[C@H](c3nc(-c4ccncc4)no3)[C@@H](C)C2)cc1C
56 | 1360 | CCCOc1ccc(-c2noc(Cc3nc(-c4cccc(OC)c4)cs3)n2)cc1
57 | 967 | Cc1ccc(C)c(NC(=O)N2CCCC(C)(C(=O)NCc3ccccc3)C2)c1 (centres undefined)
58 | 680 | Cc1cccc(C(=O)N2CCN(c3nnc4cccc(C)n34)CC2)c1
59 | 780 | Cc1nc2nc(-c3ccc(Cl)cc3)nn2c(C)c1CC(=O)N1CCCC1
60 | 792 | O=C(Nc1ccc2c(c1)OCCO2)N1CCCC(c2nnnn2-c2ccccc2)C1 (centres undefined)
61 | 620 | O=C(c1ccc2nc[nH]c2c1)N1CCCN(c2cc(-c3ccc(Cl)cc3)[nH]n2)CC1
62 | 995 | Cc1ccc(-c2noc(-c3cccc(S(=O)(=O)N4CCN(c5ccccn5)CC4)c3)n2)cc1
63 | 1140 | COc1cccc(NS(=O)(=O)c2cccc(-c3nc(-c4ccccc4)no3)c2)c1
64 | 883 | Cn1c(=O)c2c(nc3n(-c4ccccc4N)c(-c4ccc(Cl)cc4)cn23)n(C)c1=O
65 | 626 | Cc1nc(-c2ccccc2)sc1CC(=O)NCCSc1nncn1C
66 | 894 | Cc1ccc(NC(=O)C2CCN(S(C)(=O)=O)c3ccccc3O2)c(C)c1 (centres undefined)
67 | 886 | CCc1ccc(NC(=O)Cn2c(=O)n(-c3ccccc3)c(=O)c3c2cc(C)n3C)cc1
68 | 810 | CCN1C(=O)c2cccnc2Sc2cc(C(=O)NCc3cccc(F)c3)ccc21
69 | 557 | CCn1cc(C(=O)NCCn2c(C)cnc2C2CCC2)cn1
70 | 595 | Cn1c(=O)c2c(ncn2CC(=O)Nc2cccc(N3CCCS3(=O)=O)c2)n(C)c1=O
71 | 873 | COc1cc(CSc2nc(CC(=O)NCc3cccs3)cs2)cc(OC)c1
72 | 1040 | O=C(CSc1nccc2c1ccn2Cc1ccc(F)cc1)NCc1ccco1

Row | RP-LC retention time [s] | Structure (SMILES)
73 | 785 | CCc1cccc(NC(=O)C2CC(=O)N(c3ccc4oc(C)nc4c3)C2)c1 (centres undefined)
74 | 870 | O=C(Nc1ccc(SCc2nnc(-c3ccccc3)o2)cc1)C1CC1
75 | 1020 | O=C(Nc1ccccc1)c1cccn1Cc1noc(-c2ccccc2)n1
76 | 652 | O=C(C1CCN(c2nc3ccc(-c4cccnc4)nc3s2)CC1)N1CCCCC1
77 | 813 | CC(=O)c1ccc(NC(=O)Cn2c(C)cc(-c3nnc(C4CCC4)o3)c2C)cc1
78 | 686 | CC(C)(CO)NC(=O)Cc1ccc(NS(=O)(=O)/C=C/c2ccccc2)cc1
79 | 1160 | Cc1ccc(Cn2c(N3CCCC(C(=O)Nc4ccc(Cl)cc4)C3)nc3ccsc3c2=O)cc1 (centres undefined)
80 | 762 | CC(C)c1ccc(NC(=O)Cn2cnc3nc4c(cc3c2=O)CCCC4)cc1
81 | 1010 | CCOc1cccc(-c2noc(Cn3cnc4c(oc5ccccc54)c3=O)n2)c1
82 | 1030 | COc1ccc(CNC(=O)c2cc3sc(Cl)cc3n2C)cc1
83 | 713 | CC1=C(c2ccc(F)cc2)S(=O)(=O)N=C1N1CCCN(C(=O)c2ccccn2)CC1
84 | 963 | CCc1nc(-c2ccc(-c3noc(CNC(=O)c4ccccc4)n3)cc2)cs1
85 | 816 | CCc1cccc(C)c1Nc1c(-c2ccccc2)nc2nc(C)cc(C)n12
86 | 914 | CC(C)n1c(N2CCCN(C(=O)COc3ccc(Cl)cc3)CC2)cc(=O)n(C(C)C)c1=O
87 | 683 | CN(CC1CCOC1)C(=O)c1ccc(F)c(F)c1 (centres undefined)
88 | 594 | CN1CCN(C(=O)c2nnc(-c3ccc(S(=O)(=O)N4CCCC4)cc3)o2)CC1
89 | 679 | NC(=O)c1cc(-c2cccc(Cl)c2)n[nH]1
